Assay results: the NIST ThermoML archive (doi:10.1016/j.jct.2017.11.017)
Numbers after ± are expanded uncertainties.

Assay: activity coefficient (dimensionless); of the first substance listed, at infinite dilution; xn = mol fraction of the nth substance listed
Settings: 101.33 kPa, Liquid, Chromatography, x1 = 0

Structure (SMILES): C=C(C)c1ccccc1 [(1-methylethenyl)benzene] + C[N+]1(CCCO)CCOCC1.N#C[N-]C#N
- activity coefficient (318.15 K): 18.1 ± 1.2
- activity coefficient (328.15 K): 18.9 ± 1.3
- activity coefficient (338.15 K): 19.5 ± 1.3
- activity coefficient (348.15 K): 20.1 ± 1.4
- activity coefficient (358.15 K): 20.7 ± 1.4
- activity coefficient (368.15 K): 21.3 ± 1.5

Structure (SMILES): C1=CCCCC1 [cyclohexene] + C[N+]1(CCCO)CCOCC1.N#C[N-]C#N
- activity coefficient (298.15 K): 121 ± 8
- activity coefficient (308.15 K): 97 ± 6.7
- activity coefficient (318.15 K): 79.1 ± 5.4
- activity coefficient (328.15 K): 65.3 ± 4.5

Structure (SMILES): C=Cc1ccccc1 [styrene] + C[N+]1(CCCO)CCOCC1.N#C[N-]C#N
- activity coefficient (318.15 K): 9.96 ± 0.68
- activity coefficient (328.15 K): 10.3 ± 0.7
- activity coefficient (338.15 K): 10.5 ± 0.7
- activity coefficient (348.15 K): 10.8 ± 0.7
- activity coefficient (358.15 K): 11 ± 0.8
- activity coefficient (368.15 K): 11.3 ± 0.8

Structure (SMILES): C#CCCCCCC [1-octyne] + C[n+]1ccn(CCCO)c1.N#CN=C=[N-]
- activity coefficient (298.15 K): 60.1 ± 4.1
- activity coefficient (308.15 K): 60.2 ± 4.1
- activity coefficient (318.15 K): 59.8 ± 4.1
- activity coefficient (328.15 K): 59.6 ± 4.1
- activity coefficient (338.15 K): 59.6 ± 4.1
- activity coefficient (348.15 K): 59.4 ± 4.1
- activity coefficient (358.15 K): 59.6 ± 4.1

Structure (SMILES): O [water] + C[n+]1ccn(CCCO)c1.N#CN=C=[N-]
- activity coefficient (318.15 K): 0.35 ± 0.03
- activity coefficient (328.15 K): 0.36 ± 0.03
- activity coefficient (338.15 K): 0.37 ± 0.03
- activity coefficient (348.15 K): 0.38 ± 0.03
- activity coefficient (358.15 K): 0.4 ± 0.03
- activity coefficient (368.15 K): 0.41 ± 0.03

Structure (SMILES): CO [methanol] + C[n+]1ccn(CCCO)c1.N#CN=C=[N-]
- activity coefficient (318.15 K): 0.63 ± 0.04
- activity coefficient (328.15 K): 0.64 ± 0.04
- activity coefficient (338.15 K): 0.654 ± 0.045
- activity coefficient (348.15 K): 0.66 ± 0.05
- activity coefficient (358.15 K): 0.679 ± 0.046
- activity coefficient (368.15 K): 0.69 ± 0.05

Structure (SMILES): C1COCCO1 [1,4-dioxane] + C[N+]1(CCCO)CCOCC1.N#C[N-]C#N
- activity coefficient (318.15 K): 1.94 ± 0.13
- activity coefficient (328.15 K): 2.07 ± 0.14
- activity coefficient (338.15 K): 2.2 ± 0.15
- activity coefficient (348.15 K): 2.33 ± 0.16
- activity coefficient (358.15 K): 2.45 ± 0.17
- activity coefficient (368.15 K): 2.59 ± 0.18

Structure (SMILES): CCCc1ccccc1 [propylbenzene] + C[N+]1(CCCO)CCOCC1.N#C[N-]C#N
- activity coefficient (318.15 K): 54.1 ± 3.7
- activity coefficient (328.15 K): 53.2 ± 3.6
- activity coefficient (338.15 K): 52.4 ± 3.6
- activity coefficient (348.15 K): 51.5 ± 3.5
- activity coefficient (358.15 K): 51 ± 3.5
- activity coefficient (368.15 K): 50.2 ± 3.4

Structure (SMILES): c1ccsc1 [thiophene] + C[N+]1(CCCO)CCOCC1.N#C[N-]C#N
- activity coefficient (318.15 K): 3.23 ± 0.22
- activity coefficient (328.15 K): 3.37 ± 0.23
- activity coefficient (338.15 K): 3.51 ± 0.24
- activity coefficient (348.15 K): 3.64 ± 0.25
- activity coefficient (358.15 K): 3.77 ± 0.26
- activity coefficient (368.15 K): 3.9 ± 0.27

Structure (SMILES): CC(C)c1ccccc1 [isopropylbenzene] + C[n+]1ccn(CCCO)c1.N#CN=C=[N-]
- activity coefficient (318.15 K): 25.8 ± 1.8
- activity coefficient (328.15 K): 26.2 ± 1.8
- activity coefficient (338.15 K): 26.6 ± 1.8
- activity coefficient (348.15 K): 26.8 ± 1.8
- activity coefficient (358.15 K): 27.1 ± 1.9
- activity coefficient (368.15 K): 27.4 ± 1.9

Structure (SMILES): CCCC=O [butanal] + C[N+]1(CCCO)CCOCC1.N#C[N-]C#N
- activity coefficient (318.15 K): 4.26 ± 0.29
- activity coefficient (328.15 K): 4.49 ± 0.31
- activity coefficient (338.15 K): 4.74 ± 0.32
- activity coefficient (348.15 K): 4.97 ± 0.34
- activity coefficient (358.15 K): 5.19 ± 0.35
- activity coefficient (368.15 K): 5.38 ± 0.37

Structure (SMILES): CC(C)CO [2-methyl-1-propanol] + C[n+]1ccn(CCCO)c1.N#CN=C=[N-]
- activity coefficient (318.15 K): 2.79 ± 0.19
- activity coefficient (328.15 K): 2.72 ± 0.19
- activity coefficient (338.15 K): 2.68 ± 0.18
- activity coefficient (348.15 K): 2.64 ± 0.18
- activity coefficient (358.15 K): 2.6 ± 0.18
- activity coefficient (368.15 K): 2.58 ± 0.18

Structure (SMILES): COC(C)(C)C [2-methoxy-2-methylpropane] + C[n+]1ccn(CCCO)c1.N#CN=C=[N-]
- activity coefficient (318.15 K): 22.8 ± 1.6
- activity coefficient (328.15 K): 23.2 ± 1.6
- activity coefficient (338.15 K): 23.5 ± 1.6
- activity coefficient (348.15 K): 24 ± 1.6
- activity coefficient (358.15 K): 24.3 ± 1.7
- activity coefficient (368.15 K): 24.7 ± 1.7

Structure (SMILES): CCCCCO [pentan-1-ol] + C[N+]1(CCCO)CCOCC1.N#C[N-]C#N
- activity coefficient (318.15 K): 7.75 ± 0.53
- activity coefficient (328.15 K): 7.49 ± 0.51
- activity coefficient (338.15 K): 7.26 ± 0.5
- activity coefficient (348.15 K): 7.11 ± 0.48
- activity coefficient (358.15 K): 6.88 ± 0.47
- activity coefficient (368.15 K): 6.76 ± 0.46

Structure (SMILES): C1=CCCCC1 [cyclohexene] + C[n+]1ccn(CCCO)c1.N#CN=C=[N-]
- activity coefficient (298.15 K): 40.7 ± 2.8
- activity coefficient (308.15 K): 38.2 ± 2.6
- activity coefficient (318.15 K): 36.1 ± 2.5
- activity coefficient (328.15 K): 34.5 ± 2.4
- activity coefficient (338.15 K): 32.7 ± 2.2
- activity coefficient (348.15 K): 31.4 ± 2.1
- activity coefficient (358.15 K): 30 ± 2.1

Structure (SMILES): CCOCC [diethyl ether] + C[N+]1(CCCO)CCOCC1.N#C[N-]C#N
- activity coefficient (298.15 K): 59.3 ± 4.1
- activity coefficient (308.15 K): 51.3 ± 3.5
- activity coefficient (318.15 K): 44.7 ± 3.1
- activity coefficient (328.15 K): 39.2 ± 2.7
- activity coefficient (338.15 K): 35 ± 2.4

Structure (SMILES): CCc1ccccc1 [ethylbenzene] + C[n+]1ccn(CCCO)c1.N#CN=C=[N-]
- activity coefficient (318.15 K): 14.6 ± 1
- activity coefficient (328.15 K): 14.9 ± 1
- activity coefficient (338.15 K): 15.3 ± 1
- activity coefficient (348.15 K): 15.5 ± 1.1
- activity coefficient (358.15 K): 15.9 ± 1.1
- activity coefficient (368.15 K): 16.1 ± 1.1

Structure (SMILES): c1ccsc1 [thiophene] + C[n+]1ccn(CCCO)c1.N#CN=C=[N-]
- activity coefficient (318.15 K): 2.44 ± 0.17
- activity coefficient (328.15 K): 2.57 ± 0.17
- activity coefficient (338.15 K): 2.69 ± 0.18
- activity coefficient (348.15 K): 2.82 ± 0.19
- activity coefficient (358.15 K): 2.95 ± 0.2
- activity coefficient (368.15 K): 3.07 ± 0.21

Structure (SMILES): C1CCCCCC1 [cycloheptane] + C[N+]1(CCCO)CCOCC1.N#C[N-]C#N
- activity coefficient (308.15 K): 391 ± 27
- activity coefficient (318.15 K): 341 ± 23
- activity coefficient (328.15 K): 297 ± 20
- activity coefficient (338.15 K): 260 ± 18
- activity coefficient (348.15 K): 230 ± 16
- activity coefficient (358.15 K): 206 ± 14
- activity coefficient (368.15 K): 185 ± 13

Structure (SMILES): CCCC(=O)OC [methyl butanoate] + C[N+]1(CCCO)CCOCC1.N#C[N-]C#N
- activity coefficient (318.15 K): 15.8 ± 1.1
- activity coefficient (328.15 K): 15.9 ± 1.1
- activity coefficient (338.15 K): 16.1 ± 1.1
- activity coefficient (348.15 K): 16.2 ± 1.1
- activity coefficient (358.15 K): 16.3 ± 1.1
- activity coefficient (368.15 K): 16.5 ± 1.1

Structure (SMILES): CCCCCO [pentan-1-ol] + C[n+]1ccn(CCCO)c1.N#CN=C=[N-]
- activity coefficient (318.15 K): 4.16 ± 0.28
- activity coefficient (328.15 K): 4.14 ± 0.28
- activity coefficient (338.15 K): 4.1 ± 0.28
- activity coefficient (348.15 K): 4.06 ± 0.28
- activity coefficient (358.15 K): 4.08 ± 0.28
- activity coefficient (368.15 K): 4.05 ± 0.28

Structure (SMILES): C#CCCC [1-pentyne] + C[N+]1(CCCO)CCOCC1.N#C[N-]C#N
- activity coefficient (308.15 K): 24.2 ± 1.7
- activity coefficient (318.15 K): 23.6 ± 1.6
- activity coefficient (328.15 K): 23.1 ± 1.6
- activity coefficient (338.15 K): 22.7 ± 1.6
- activity coefficient (348.15 K): 22.4 ± 1.5
- activity coefficient (358.15 K): 22 ± 1.5
- activity coefficient (368.15 K): 21.7 ± 1.5

Structure (SMILES): C=COC(C)=O [vinyl acetate] + C[n+]1ccn(CCCO)c1.N#CN=C=[N-]
- activity coefficient (318.15 K): 4.73 ± 0.32
- activity coefficient (328.15 K): 4.92 ± 0.34
- activity coefficient (338.15 K): 5.12 ± 0.35
- activity coefficient (348.15 K): 5.3 ± 0.36
- activity coefficient (358.15 K): 5.49 ± 0.37
- activity coefficient (368.15 K): 5.68 ± 0.39

Structure (SMILES): CCOC(C)=O [ethyl acetate] + C[N+]1(CCCO)CCOCC1.N#C[N-]C#N
- activity coefficient (318.15 K): 9.71 ± 0.66
- activity coefficient (328.15 K): 9.78 ± 0.67
- activity coefficient (338.15 K): 9.83 ± 0.67
- activity coefficient (348.15 K): 9.91 ± 0.68
- activity coefficient (358.15 K): 10 ± 0.7
- activity coefficient (368.15 K): 10.1 ± 0.7

Structure (SMILES): CCOC(C)(C)C [2-ethoxy-2-methylpropane] + C[N+]1(CCCO)CCOCC1.N#C[N-]C#N
- activity coefficient (298.15 K): 339 ± 23
- activity coefficient (308.15 K): 275 ± 19
- activity coefficient (318.15 K): 227 ± 16
- activity coefficient (328.15 K): 191 ± 13

Structure (SMILES): COC(C)=O [methyl ethanoate] + C[n+]1ccn(CCCO)c1.N#CN=C=[N-]
- activity coefficient (318.15 K): 3.07 ± 0.21
- activity coefficient (328.15 K): 3.21 ± 0.22
- activity coefficient (338.15 K): 3.35 ± 0.23
- activity coefficient (348.15 K): 3.5 ± 0.24
- activity coefficient (358.15 K): 3.64 ± 0.25
- activity coefficient (368.15 K): 3.8 ± 0.26

Structure (SMILES): CC1CCCCC1 [methylcyclohexane] + C[n+]1ccn(CCCO)c1.N#CN=C=[N-]
- activity coefficient (298.15 K): 207 ± 14
- activity coefficient (308.15 K): 187 ± 13
- activity coefficient (318.15 K): 169 ± 12
- activity coefficient (328.15 K): 154 ± 11
- activity coefficient (338.15 K): 141 ± 10
- activity coefficient (348.15 K): 131 ± 9
- activity coefficient (358.15 K): 121 ± 8

Structure (SMILES): C1CCCC1 [cyclopentane] + C[n+]1ccn(CCCO)c1.N#CN=C=[N-]
- activity coefficient (298.15 K): 69.3 ± 4.7
- activity coefficient (308.15 K): 63.7 ± 4.4
- activity coefficient (318.15 K): 58.7 ± 4
- activity coefficient (328.15 K): 54.5 ± 3.7

Structure (SMILES): CCC(C)(C)OC [2-methoxy-2-methylbutane] + C[n+]1ccn(CCCO)c1.N#CN=C=[N-]
- activity coefficient (318.15 K): 36.8 ± 2.5
- activity coefficient (328.15 K): 37 ± 2.5
- activity coefficient (338.15 K): 37.2 ± 2.5
- activity coefficient (348.15 K): 37.5 ± 2.6
- activity coefficient (358.15 K): 37.7 ± 2.6
- activity coefficient (368.15 K): 38.1 ± 2.6

Structure (SMILES): CC(C)CC(C)(C)C [2,2,4-trimethylpentane] + C[n+]1ccn(CCCO)c1.N#CN=C=[N-]
- activity coefficient (298.15 K): 767 ± 53
- activity coefficient (308.15 K): 662 ± 46
- activity coefficient (318.15 K): 579 ± 40
- activity coefficient (328.15 K): 509 ± 35
